Measured values reported in patent publication US4657892A, “Pharmacologically active peptides” (priority 1983, dated 1987).
pIC50: −log10 of the molar value. Entries after “also recorded” stand apart in the source; their conditions may differ. Like-named read-outs stand apart in the source and are kept apart here. Non-standard residues stand in square brackets, D forms with d. Residues, ends and D or L forms follow the SMILES beside them.

Experiments:
[1] = system: isolated guinea-pig ileum; assay: opioid activity in the electrically stimulated guinea-pig ileum preparation; assay type: cell-based; details: for rel. value Der. = 100 / rel. value Nor. = 100: relative potency; for rel. value Der. = 100: dermorphin IC50 = 100%; for rel. value Nor. = 100: normorphine IC50 = 100%
Description: As biological test system for determination of the opioid activity the ileum preparation of the guinea-pig was used (detailed description German application No. 29 21 216, p. 24). […] In addition for a better understanding the IC50 -value can be expressed as 100% for the opiates normorphine and dermorphin (DT-OS No. 30 34 897) and the relative activity of the single substances can be given in comparison to normorphine or dermorphine. The indication of the relative potency has the advantage that by this variations of the sensitivity of the assay are neutralized.
The (*) marked values of table 1 correspond to those which have been described by Castiglione et al. (Peptides, 2, p. 266, table 1, substances 1 and 3: column GPI=guinea-pig ileum preparation).
IC50 -values (nM), see description, of two peptides of the invention (III an IV) in comparison to those of the prior art (dermorphin,I,II) as measured in the isolated guinea-pig ileum. […] The inhibiting effect of the substances I, II, III, and IV was antagonized by addition of the specific opiate antagonist naloxone (final concentration in the organ bath 900 nM); upon further addition of the substances I to IV to the organ bath (in presence of naloxone) no further inhibition could be observed; the inhibiting effect of the substances I-IV has therefore to be considered as specific opiate-like.

[2] = molecular target: T1, α-chymotrypsin (Bos taurus, UniProt P00766, DEL14-15/DEL147-148); assay: enzymatic stability against α-chymotrypsin, remaining activity assayed on guinea-pig ileum; assay type: in vitro ADME; details: 1 mg peptide, 50 μg α-chymotrypsin, Krebs-Ringer solution, 5 hours at 37° C.
T1 construct: purchased Serva, Heidelberg
Experimental: 1 mg of each of the peptides dermorphin, I, II, III and IV (table 1) were dissolved in 1 ml freshly prepared Krebs-Ringer solution and mixed together with 50 μg α-chymotrypsin (Serva, Heidelberg, dissolved in 50 μl Krebs-Ringer solution); immediately after mixing, a 100 μl aliquot was removed and heated up to 95° C. for 15 minutes. (The heating was employed in order to inactivate the enzyme). This aliquot removed, will be later used for reference as initial value (Zero-value of incubation time). The remaining 950 μl of the peptide/enzyme mixture were incubated for 5 hours at 37° C.; the incubation period was also terminated by heating up to 95° C.
After centrifugation identical aliquots of the supernatants were assayed quantitatively for their opiate-like effect and compared with the zero-value; and guinea-pig ileum was also used as assay system (as above described).

[3] = system: isolated guinea-pig ileum; details: * marked, from Castiglione et al., Peptides 2, p. 266, read-out: IC50 (* values described by Castiglione et al.); cited from earlier work

| SMILES | rel. value Der. = 100 [1] | rel. value Nor. = 100 [1] | opiate-like activity remaining after incubation with α-chymotrypsin compared to zero-value [2] | pIC50 [3] | pIC50 ([1]; Cavia porcellus, isolated guinea-pig ileum, 7 experiments, read-out: IC50 (inhibition of electrically induced contractions by 50%)) |
| --- | --- | --- | --- | --- | --- |
| C[C@@H](NC(=O)[C@@H](N)Cc1ccc(O)cc1)C(=O)N[C@@H](Cc1ccccc1)C(=O)NCC(=O)N[C@@H](Cc1ccc(O)cc1)C(=O)N1CCC[C@H]1C(=O)N[C@@H](CO)C(N)=O [Dermorphin] | 100 | 3143 | nearly fully destroyed | 8.46 | – |
| Oc1ccc2c3c1O[C@H]1[C@@H](O)C=C[C@H]4[C@@H](C2)NCC[C@@]341 [Normorphine] | 3.2 | 100 | – | – | 6.96 |
| C[C@@H](NC(=O)[C@@H](N)Cc1ccc(O)cc1)C(=O)N[C@@H](Cc1ccccc1)C(=O)N1CCC[C@H]1C(=O)N[C@@H](Cc1ccc(O)cc1)C(N)=O [Substance I, Tyr--D-Ala--Phe--Pro--Tyr--NH2] (H-Y[dA]FPY-NH2) | – | – | higher stability than substance II | – | – |
| C[C@@H](NC(=O)[C@@H](N)Cc1ccc(O)cc1)C(=O)N[C@@H](Cc1ccccc1)C(=O)NCC(=O)N[C@@H](Cc1ccc(O)cc1)C(N)=O [Substance II, Tyr--D-Ala--Phe--Gly--Tyr--NH2] (H-Y[dA]FGY-NH2) | – | – | nearly fully destroyed | – | – |
| C[C@@H](NC(=O)[C@H](Cc1ccccc1)NC(=O)[C@@H](C)NC(=O)[C@@H](N)Cc1ccc(O)cc1)C(=O)N[C@@H](Cc1ccc(O)cc1)C(N)=O [Substance III, Tyr--D-Ala--Phe--D-Ala--Tyr--NH2] (H-Y[dA]F[dA]Y-NH2) | – | – | higher stability towards proteolytic enzymes (compared to II); also recorded: full opiate-like activity | – | – |
| C[C@@H](NC(=O)[C@H](Cc1ccccc1)NC(=O)[C@@H](C)NC(=O)[C@@H](N)Cc1ccc(O)cc1)C(=O)N[C@@H](Cc1ccccc1)C(N)=O [Substance IV, Tyr--D-Ala--Phe--D-Ala--Phe--NH2] (H-Y[dA]F[dA]F-NH2) | – | – | full opiate-like activity | – | – |
